Experimental findings from patent US20050197350A1, “Novel quinoline, tetrahydroquinazoline, and pyrimidine derivatives and methods of treatment related to the use thereof” (TAISHO PHARMACEUTICAL CO., LTD., priority 2003, published 2005) are described below.

The assay has as its system MCH receptors. The assay is described as follows: MCH receptor activity class (method not given). The following applies: class by percent of control at 10^-7 M or IC50.

Regarding `CN(C)c1ccnc(N[C@H]2CC[C@@H](NC(=O)c3cccc([N+](=O)[O-])c3)CC2)n1` [compound 262, N-(cis-4-{[4-(dimethylamino)pyrimidin-2-yl]amino}cyclohexyl)-3-nitrobenzamide], the class is listed as 1 (Class 1: The value of percent of control at 10^−7 M was less than 40% or the value of IC50 was less than 50 nM.).

On to `CN(C)c1ccnc(N[C@H]2CC[C@@H](NC(=O)Cc3ccccc3)CC2)n1` [compound 263], for which the class is 3 (Class 3 The value of percent of control at 10^−7 M was more than 60% or the value of IC50 was more than 200 nM.).

In the case of `CN(C)c1ccnc(N[C@H]2CC[C@@H](NC(=O)C3C[C@H]3c3ccccc3)CC2)n1` (stereo partly shown) [compound 264], the class is 3 (Class 3 The value of percent of control at 10^−7 M was more than 60% or the value of IC50 was more than 200 nM.).

For the compound `CN(C)c1ccnc(N[C@H]2CC[C@@H](NC(=O)c3ccc4c(c3)OCO4)CC2)n1` [compound 265], the class is on record as 3 (Class 3 The value of percent of control at 10^−7 M was more than 60% or the value of IC50 was more than 200 nM.).

As for `Cc1cccc(C(=O)N[C@H]2CC[C@@H](Nc3nccc(N(C)C)n3)CC2)c1` [compound 268, N-(cis-4-{[4-(dimethylamino)pyrimidin-2-yl]amino}cyclohexyl)-3-methylbenzamide], the class is recorded as 2 (Class 2: The value of percent of control at 10^−7 M was from 40% to 60% or the value of IC′50 was from 50 nM to 200 nM.).

On to `Cc1ccc(C(=O)N[C@H]2CC[C@@H](Nc3nccc(N(C)C)n3)CC2)cc1` [compound 269], for which the class is recorded as 3 (Class 3 The value of percent of control at 10^−7 M was more than 60% or the value of IC50 was more than 200 nM.).

With `CN(C)c1ccnc(N[C@H]2CC[C@@H](NC(=O)c3cccs3)CC2)n1` [compound 270], the class is 3 (Class 3 The value of percent of control at 10^−7 M was more than 60% or the value of IC50 was more than 200 nM.).

`CN(C)c1ccnc(N[C@H]2CC[C@@H](NC(=O)Cc3cccs3)CC2)n1` [compound 271]: the class is listed as 3 (Class 3 The value of percent of control at 10^−7 M was more than 60% or the value of IC50 was more than 200 nM.).

On to `CN(C)c1ccnc(N[C@H]2CC[C@@H](NC(=O)c3cccc(OC(F)(F)F)c3)CC2)n1` [compound 272, N-(cis-4-{[4-(dimethylamino)pyrimidin-2-yl]amino}cyclohexyl)-3-(trifluoromethoxy)benzamide], for which the class is given as 1 (Class 1: The value of percent of control at 10^−7 M was less than 40% or the value of IC50 was less than 50 nM.).

For the compound `CN(C)c1ccnc(NC2CCC(NC(=O)OCc3ccccc3)CC2)n1` (stereo not shown) [compound 273], the class was 3 (Class 3 The value of percent of control at 10^−7 M was more than 60% or the value of IC50 was more than 200 nM.).

Turning to `CN(C)c1ccnc(NC2CCC(NC(=O)OCc3ccc([N+](=O)[O-])cc3)CC2)n1` (stereo not shown) [compound 274], the class was 3 (Class 3 The value of percent of control at 10^−7 M was more than 60% or the value of IC50 was more than 200 nM.).

For `Cc1cc(C(=O)N[C@H]2CC[C@@H](Nc3nccc(N(C)C)n3)CC2)ccc1Br` [compound 275, 4-bromo-N-(cis-4-{[4-(dimethylamino)pyrimidin-2-yl]amino}cyclohexyl)-3-methylbenzamide], the class is listed as 1 (Class 1: The value of percent of control at 10^−7 M was less than 40% or the value of IC50 was less than 50 nM.).

Take `CN(C)c1ccnc(N[C@H]2CC[C@@H](NC(=O)c3cccc(I)c3)CC2)n1` [compound 276, N-(cis-4-{[4-(dimethylamino)pyrimidin-2-yl]amino}cyclohexyl)-3-iodobenzamide]: the class was 1 (Class 1: The value of percent of control at 10^−7 M was less than 40% or the value of IC50 was less than 50 nM.).

With `CN(C)c1ccnc(N[C@H]2CC[C@@H](NC(=O)c3cccc(Cl)c3F)CC2)n1` [compound 277], the class was 3 (Class 3 The value of percent of control at 10^−7 M was more than 60% or the value of IC50 was more than 200 nM.).

On to `Cc1ccc(C(=O)N[C@H]2CC[C@@H](Nc3nccc(N(C)C)n3)CC2)c(F)c1F` [compound 278], for which the class is reported as 3 (Class 3 The value of percent of control at 10^−7 M was more than 60% or the value of IC50 was more than 200 nM.).

For `CN(C)c1ccnc(N[C@H]2CC[C@@H](NC(=O)c3ccc(F)cc3Cl)CC2)n1` [compound 279], the class was 3 (Class 3 The value of percent of control at 10^−7 M was more than 60% or the value of IC50 was more than 200 nM.).

In the case of `CN(C)c1ccnc(N[C@H]2CC[C@@H](NC(=O)c3ccc(F)c(Cl)c3F)CC2)n1` [compound 280], the class is 3 (Class 3 The value of percent of control at 10^−7 M was more than 60% or the value of IC50 was more than 200 nM.).

As for `CN(C)c1ccnc(N[C@H]2CC[C@@H](NC(=O)CSc3ccccc3)CC2)n1` [compound 281], the class is listed as 3 (Class 3 The value of percent of control at 10^−7 M was more than 60% or the value of IC50 was more than 200 nM.).

For the compound `CN(C)c1ccnc(N[C@H]2CC[C@@H](NC(=O)c3cccc(C(F)(F)F)c3F)CC2)n1` [compound 282], the class was 3 (Class 3 The value of percent of control at 10^−7 M was more than 60% or the value of IC50 was more than 200 nM.).

For the compound `CN(C)c1ccnc(N[C@H]2CC[C@@H](NC(=O)c3cc(C(F)(F)F)ccc3F)CC2)n1` [compound 283], the class is 3 (Class 3 The value of percent of control at 10^−7 M was more than 60% or the value of IC50 was more than 200 nM.).

Regarding `COc1cccc(CC(=O)N[C@H]2CC[C@@H](Nc3nccc(N(C)C)n3)CC2)c1` [compound 285], the class is given as 3 (Class 3 The value of percent of control at 10^−7 M was more than 60% or the value of IC50 was more than 200 nM.).

For `CN(C)c1ccnc(N[C@H]2CC[C@@H](NC(=O)Cc3ccc(F)cc3)CC2)n1` [compound 286], the class was 3 (Class 3 The value of percent of control at 10^−7 M was more than 60% or the value of IC50 was more than 200 nM.).

For the compound `COc1ccc(CC(=O)N[C@H]2CC[C@@H](Nc3nccc(N(C)C)n3)CC2)cc1` [compound 287], the class is given as 3 (Class 3 The value of percent of control at 10^−7 M was more than 60% or the value of IC50 was more than 200 nM.).

`Cc1cc(C(=O)N[C@H]2CC[C@@H](Nc3nccc(N(C)C)n3)CC2)c(C(F)(F)F)o1` [compound 288]: the class was 3 (Class 3 The value of percent of control at 10^−7 M was more than 60% or the value of IC50 was more than 200 nM.).

With `Cc1cc(C(=O)N[C@H]2CC[C@@H](Nc3nccc(N(C)C)n3)CC2)c(C)o1` [compound 289, N-(cis-4-{[4-(dimethylamino)pyrimidin-2-yl]amino}cyclohexyl)-2,5-dimethyl-3-furamide], the class was 2 (Class 2: The value of percent of control at 10^−7 M was from 40% to 60% or the value of IC′50 was from 50 nM to 200 nM.).

With `CCOc1ccccc1C(=O)N[C@H]1CC[C@@H](Nc2nccc(N(C)C)n2)CC1` [compound 290], the class is on record as 3 (Class 3 The value of percent of control at 10^−7 M was more than 60% or the value of IC50 was more than 200 nM.).

In the case of `CN(C)c1ccnc(N[C@H]2CC[C@@H](NC(=O)c3ccc(F)c(Cl)c3)CC2)n1` [compound 291, 3-chloro-N-(cis-4-{[4-(dimethylamino)pyrimidin-2-yl]amino}cyclohexyl)-4-fluorobenzamide], the class is listed as 1 (Class 1: The value of percent of control at 10^−7 M was less than 40% or the value of IC50 was less than 50 nM.).

In the case of `Cc1ccc(C(=O)N[C@H]2CC[C@@H](Nc3nccc(N(C)C)n3)CC2)cc1F` [compound 292], the class was 3 (Class 3 The value of percent of control at 10^−7 M was more than 60% or the value of IC50 was more than 200 nM.).

On to `CN(C)c1ccnc(N[C@H]2CC[C@@H](NC(=O)CC3CCCC3)CC2)n1` [compound 293], for which the class is 3 (Class 3 The value of percent of control at 10^−7 M was more than 60% or the value of IC50 was more than 200 nM.).

Regarding `COc1cc(OC)cc(C(=O)N[C@H]2CC[C@@H](Nc3nccc(N(C)C)n3)CC2)c1` [compound 294, N-(cis-4-{[4-(dimethylamino)pyrimidin-2-yl]amino}cyclohexyl)-3,5-dimethoxybenzamide], the class is on record as 1 (Class 1: The value of percent of control at 10^−7 M was less than 40% or the value of IC50 was less than 50 nM.).

`CN(C)c1ccnc(N[C@H]2CC[C@@H](NC(=O)c3ccc(C#N)cc3)CC2)n1` [compound 295]: the class is 3 (Class 3 The value of percent of control at 10^−7 M was more than 60% or the value of IC50 was more than 200 nM.).

In the case of `CN(C)c1ccnc(N[C@H]2CC[C@@H](NC(=O)c3cc(C(F)(F)F)cc(C(F)(F)F)c3)CC2)n1` [compound 296, N-(cis-4-{[4-(dimethylamino)pyrimidin-2-yl]amino}cyclohexyl)-3,5-bis(trifluoromethyl)benzamide], the class is given as 1 (Class 1: The value of percent of control at 10^−7 M was less than 40% or the value of IC50 was less than 50 nM.).

In the case of `CN(C)c1ccnc(N[C@H]2CC[C@@H](NC(=O)/C=C/c3ccc([N+](=O)[O-])cc3)CC2)n1` [compound 297], the class was 3 (Class 3 The value of percent of control at 10^−7 M was more than 60% or the value of IC50 was more than 200 nM.).

Regarding `CN(C)c1ccnc(N[C@H]2CC[C@@H](NC(=O)Cc3ccccc3Br)CC2)n1` [compound 298], the class is given as 3 (Class 3 The value of percent of control at 10^−7 M was more than 60% or the value of IC50 was more than 200 nM.).

For the compound `Cc1cc(C(=O)N[C@H]2CC[C@@H](Nc3nccc(N(C)C)n3)CC2)ccc1F` [compound 299, N-(cis-4-{[4-(dimethylamino)pyrimidin-2-yl]amino}cyclohexyl)-4-fluoro-3-methylbenzamide], the class is reported as 1 (Class 1: The value of percent of control at 10^−7 M was less than 40% or the value of IC50 was less than 50 nM.).

With `CN(C)c1ccnc(N[C@H]2CC[C@@H](NC(=O)c3ccccc3SC(F)F)CC2)n1` [compound 300], the class is 3 (Class 3 The value of percent of control at 10^−7 M was more than 60% or the value of IC50 was more than 200 nM.).

In the case of `CN(C)c1ccnc(N[C@H]2CC[C@@H](NC(=O)c3cc(Cl)sc3Cl)CC2)n1` [compound 301], the class was 2 (Class 2: The value of percent of control at 10^−7 M was from 40% to 60% or the value of IC′50 was from 50 nM to 200 nM.).
